We go through 1 substance from US9161944B2, “Method for preventing cancer metastasis” (INSERM (INSTITUT NATIONAL DE LA SANTE ET DE LA SANTE ET DE …, priority 2010, dated 2015).

Assay [1] concerns endogenously HEK potassium current. Nature of the assay: Endogenous HEK potassium current (patch clamp). It is filed as cell-based. To be noted: applied concentration range; data not shown. The procedure: Whatever the concentration tested approximately 40 sec was needed to reduce 50% of the amplitude of the current. […] Increasing intracellular calcium concentration by the addition of 5 μM A23187 totally reversed the effect of JPH1701 (data not shown).
On the technique in general: The patch-clamp technique gives a direct electrical read-out from membranes.

In the next assay the target is SK3/KCa2.3 channel (Homo sapiens, UniProt Q9UGI6). Nature of the assay: Whole-cell patch clamp on HEK293 cells expressing SK3. It is filed as cell-based. Also on record: expressed in transfected cells; host or cells: HEK293, lentiviral transduction, clonal selection. The procedure:
The percentages of inhibition represent the ratio (SK3 current amplitude and chord conductance (in the presence of 10 μM JPH1701)/SK3 current amplitude in control experiments). Black bars show current at 0 mV and grey bars indicate the chord conductance. […] Columns, mean, bars, SEM, (5 cells for racemic mix and 4 cells for + and − forms).
MDA-MB-435s and HEK293 cells were transduced with lentiviral vector at multiplicities of infection (MOI) of 1 to 3 in the presence of polybrene (4 μg/ml, Sigma).
Experiments were performed with cells seeded into 35-mm Petri dishes at 3000 cells per cm2. All experiments were performed using the conventional whole-cell recording configuration of the patch-clamp technique as previously described. PCa solution was 7 and 6.4 respectively for MDA-MB-435s and HEK293-SK3/KCa2.3 cells.
Briefly, experiments were conducted using Axopatch 200B patch-clamp amplifier (Axon Instrument) and data, digitized with 1322-A Digidata converter (Axon Instrument), were stored on a computer using Clampex of pClamp 9.2 software (Axon Instru-ment). The patch-clamp data was analyzed using both Clampfit 9.2 and Origin 7.0 software (Microcal Inc., Northampton, Mass., USA).
The pipette solution for the whole-cell recordings contained (in mM): K-glutamate 125, KCl 20, MgCl2 1, Mg-ATP 1, HEPES 10, and pH was adjusted to 7.2 with KOH and various concentrations of CaCl2 and EGTA were added to obtain calculated pCa=7 (0.37 mM CaCl2 and 10 mM EGTA) or pCa=6.4 (0.7 mM CaCl2 and 1 mM EGTA).
We next developed HEK cells expressing SK3/KCa2.3 channel in order to test directly analogues on SK3 activity measured using patch-clamp technique (FIG. 8). […] The JPH1701-induced inhibition of SK3 current was analysed at 0 mV and the entire time course of the experiment is depicted in FIG. 8A.
Current activity has been measured in HEK 293 LvSK3 and in MDA-MB-435s cells. The percentages represent the inhibition of current and of conductance by compounds on SK3 channel in HEK 293 cells.

For another assay, the system named is MDA-MB-435s-luc cells. Nature of the assay: Mammary fat pad (MFP)-model tumor. It is filed as in vivo, NMRI nude mice. To be noted: 15 mg/kg i.v. three times a week. The procedure: FIG. 10. Anti-metastatic effect of JPH1701 on experimental metastasis model. Two millions of MDA-MB-435s-luc cells pre-treated for 24 hours with JPH1701 (1 μM) or vehicle were grafted in MFP of NMRI/Nude mice. Mice were treated three times a week with JPH1701 at 15 mg/kg in i.v. or with vehicle during all the experiments (14-15 weeks). The primary tumor was surgical removed when its volume attempted 500 mm3 (6-7 weeks post-graft). Mice were euthanized 7-8 weeks after surgical removed of the primary tumor. FIG. 10A-B) In vivo BLI of metastases from mice treated with vehicle (FIG. 10A) or with JPH1701 (FIG. 10B) before euthanasia. FIG. 10C) Number of tissue with metastases detected ex vivo by bioluminescence (including lymph nodes, lungs, rachis and bone legs) after euthanasia. FIG. 10D) Metastatic score of mice treated with vehicle or with JPH1701. Two parameters were used to assess the metastatic score of each mouse: (i) Number of tissue or organ with metastases detected ex vivo by BLI and (ii) BLI intensity (photon/min) of each metastasis. […] The score of each cohort (sum of individually score) represents the degree of metastatic development assessed in vivo by BLI.
Two millions of MDA-MB-435s-luc cells pre-treated for 24 hours with JPH1701 (1 μM) or vehicle were grafted in MFP of NMRI/Nude mice. […] Two weeks post-graft, primary tumors were measured, weekly, during 6 weeks in three dimensions with a caliper and tumor volume was calculated (black circles: vehicle, open circles: JPH1701). […] Two weeks post-graft, the number of cancer cells in the primary tumor was evaluated weekly during 6 weeks by BLI imaging (black circles: vehicle, open circles: JPH1701). […]
The growth of primary tumors was weekly evaluated by caliper measurement and by bioluminescence imaging (BLI). The tumor volume was calculated as length×width×depth and the primary tumor was surgical removed when its volume attempted 500 mm3 (6-7 weeks post graft). Mice were euthanized 8 weeks after tumor excision and metastases were detected ex vivo by bioluminescence imaging in lymph nodes, lungs, rachis, and bone legs. […]

Regarding “hexadecyloxy-2-O-methyl-sn-glycerol-lactose [JPH1701]”, the “Effect on endogenous HEK potassium current” value in assay [1] is given as “not significantly affected”. Further, the “Effect on SK3 current amplitude at 0 mV” value at SK3/KCa2.3 channel (10 μM, FIG. 9B, ranking SK3>SK1) is reported as “significantly reduced”. Moreover, the “Reduction of the amplitude of the SK3 current at 0 mV” value at SK3/KCa2.3 channel (10 μM, after 120 sec) is “about 70%”. Further, the “Time needed to reduce 50% of the amplitude of the current” value at SK3/KCa2.3 channel (0.3, 1 and 10 μM, whatever the concentration) was “approximately 40 sec”. Also, the Conductance decreasing on SK3/KCa2.3 channel (HEK 293 LvSK3 cells) is 66.1 ± 1.5%. Further, the “Inhibition of I at 0 mV” value on SK3/KCa2.3 channel (HEK 293 LvSK3 cells, 10 μM stated for JPH1701) turned out to be 70.1 ± 1.4%. Further, the “Metastatic score versus vehicle (Rank Sum Test)” value in the assay on MDA-MB-435s-luc cells (14-15 weeks, FIG. 10D) is reported as “significantly different”. In addition, in the assay on MDA-MB-435s-luc cells (6 weeks, FIG. 12B), the “Number of cancer cells in the primary tumor (BLI) versus vehicle” value was “did not highlighted any significant difference”. In the assay on MDA-MB-435s-luc cells (over 6 weeks, FIG. 12A), the “Time course of primary tumor volume versus vehicle” value is given as “no difference”.
